Article PMC5294914 (Cell host & microbe, 2016)

Molecular target: FmlH (Escherichia coli, UniProt A0A0H2V7F6)
Assay: solution binding study

With OC[C@H]1OC(O)[C@H](O)[C@@H](O)[C@H]1O (stereo partly drawn) [D-Gal] the Kd was 625 µM.
